From publication PMC11459959, “Discovery of new acetamide derivatives of 5-indole-1,3,4-oxadiazol-2-thiol as inhibitors of HIV-1 Tat-mediated viral transcription” (Antimicrobial Agents and Chemotherapy, 2024)

What was measured:
[1] = test system: PI-resistant HIV-1 strain 11803; test: microbe, parasite or virus in culture; format: cell-based; details: Human immunodeficiency virus 1, PBMC
Excerpt: (§1) The Tzm-bl-derived dual Tat reporter; TZM-bl/Tat/Rluc (bl-DTR) cells were established from TZM-bl cells using two Dox-inducible lentiviral expression cassettes cloned with Flag-tagged Tat86 and the R-Luc gene, as described in our previous study ([11]). TZM-bl, A3.01, J1.1, and J-Lat 6.3 cells as well as the HIV-1 molecular clone pNL4-3, pNL(AD8), ARV-resistant HIV-1 strains, and HIV-1NL43-IRES-eGFP (pBR43IeG-nef^+, gifted by Dr. Frank Kirchhoff) ([52]) were provided by the National Institute of Health HIV Reagent Program (NIH, Bethesda, MD, USA). HeLa (CCL-2) and 293T (CRL-3216) cell lines were purchased from the American Type Culture Collection (ATCC, Manassas, VA, USA). The bl-DTR, TZM-bl, HeLa, and 293T cells were cultured in Dulbecco’s modified Eagle’s medium supplemented with 1% penicillin–streptomycin and 10% (vol/vol) heat-inactivated fetal bovine serum (all from Gibco-BRL, Gaithersburg, MD, USA), and 1 µg/mL of puromycin and 200 µg/mL of zeocin were additionally supplemented for the bl-DTR cells. PBMCs were purchased from AllCells (Alameda, CA, USA) and cultured as previously described ([12]). The information on ARV-resistant HIV-1 strains was described in previous reports as follows: NNRTI-resistant 12241 and 12243 ([53]); NRTI-resistant 7396, 7406, and 7407 ([54]); INSTI-resistant 11847 and 11849 ([55], [56]); and PI-resistant 11800 and 11803 ([57]). Each molecular HIV-1 clone was transfected to 293T cells, as previously described ([58]), to obtain infectious HIV-1 particles. Virus-containing cell culture supernatants were collected 3 days after transfection, and filtered through a 0.45-µm membrane filter (Millipore Sigma, Burlington, MA, USA) to remove cell debris. The viral titration was performed as described previously ([59]) with some minor modifications. In brief, 1 × 10^4 TZM-bl cells seeded in 96-well plates were infected with 200 µL of virus-containing medium diluted serially twofold. The incubation was for 2 days and the experiment was performed in triplicate; the infection time minimized the virus spread ([59]). The titration of the infectious viral particles was performed with a ß-Gal staining assay using the ßeta-Galactosidase Staining Kit (Mirus Bio, Madison, WI, USA) following the manufacturer’s protocols. In brief, the infected cells were washed with phosphate-buffered saline (PBS) and fixed using a Cell Fixative Working solution. The cells were washed with PBS and stained using the Cell Staining Working Solution containing X-gal. The infected blue-colored cells were counted under a microscope (100× magnification). The infectious virus titer was determined as a mean value of blue-colored cells count × dilution factor and used for determining the multiplicity of infection (MOI) in each infection experiment.
(§2) The inhibitory effects of the compounds on viral replication were determined with some minor modifications, as previously described ([12], [62]). […] PBMCs (4 × 10^5) pre-activated with PHA-M for 3 days were washed with fresh media to remove excess PHA-M and subsequently infected with HIV-1NL4-3 or HIV-1AD8 or PIs-resistant HIV-1 strains as A3.01 infection. After infection, the infectious media were replaced with fresh media supplemented with international 10 units (IU)/mL of IL-2 and the indicated compounds. At 72 h after infection, the inhibitory effect of the compounds on viral replication was determined by measuring the p24 amount, an HIV capsid protein, using an HIV-1 p24 […] kit (PerkinElmer, Waltham, MA, USA). Cell viability was determined as described above. The inhibitory effects on provirus reversing in J1.1 and J-Lat 6.3 cells were determined as previously described ([12], [41], [63]) with some minor modifications.

[2] = test system: PI-resistant HIV-1 strain 11800; test: microbe, parasite or virus in culture; format: cell-based; details: Human immunodeficiency virus 1, PBMC
Excerpt: as §1, §2

HIV-1NL4-3 [3] = test: HIV-1 replication in PBMCs (p24 […]); format: cell-based; details: Human immunodeficiency virus 1, PBMC, Table S1, WT virus, 10-fold serial dilution
Description: (§3) The p24 level from the cell supernatant was subsequently determined using a p24 […] kit (PerkinElmer). In parallel, the cell viability was determined without viral infection because of the viral cytopathic effect. […] In parallel, cell viability was determined. The data (A and B) are presented as the mean ± SD (n = 3). (C) PBMCs (4 × 10^5) infected with HIV-AD8 at an MOI of 0.1 were treated with 1.5 µM of the compounds or ARVs for 3 days. The levels of p24 and cell viability were subsequently determined. (D) J1.1 cells were cultured with the compounds ([…]) under 50 ng/mL phorbol myristate acetate (PMA) treatment for 2 days. The level of p24 was subsequently determined. (E) J-Lat 6.3 cells were treated with the compounds (1.5 µM) under 1 µg/mL of PMA for 2 days. The GFP-positive cell population was analyzed using flow cytometry. The data are represented as a value relative to the DMSO-treated vehicle (D) and a percent of the GFP^+ cell population (E) as mean ± SD (n = 3).
as §2, with “modifications. Briefly, 5 × 10^4 persistently HIV-1-infected J1.1 or J-Lat 6.3 cells were cultured in either the presence or absence of the compounds at a final concentration of 1.5 µM and treated with PMA (50 ng/mL for J1.1 cells, 1 µg/mL for J-Lat 6.3 cells). Two days after treatment, the levels of viral production were determined using p24 […] for J1.1 cells and flow cytometry analysis for GFP-expressing J-Lat 6.3 cells.” for “modifications.”

HIV-1 transcripts = test: RNA-seq of HIV-1 transcripts in infected TZM-bl cells; format: cell-based; details: HIV-1NL4-3 MOI 1, 1.5 µM, 2 days
Description: At 48 h after infection, the total RNA was extracted using the Maxwell RSC simplyRNA Cells Kit (Promega) according to the manufacturer’s instructions. RNA integrity was evaluated as RNA integrity number >6 using the Agilent 2100 Bio-analyzer (Agilent Technologies, Santa Clara, CA, USA). The cDNA libraries were constructed using TruSeq Stranded mRNA Sample Preparation Kit (Illumina, San Diego, CA, USA) according to the manufacturer’s instructions. Subsequently, these cDNA libraries were sequenced on the Illumina sequencing platform (NovaSeq6000; Illumina) and 150 bp paired-end reads were generated. Trimmomatic (v.0.32) was used to eliminate low-quality reads and adapter sequences from the sequencing data ([64]). Subsequently, the filtered reads were aligned to the HIV-1 genome (accession: AF324493.2) using STAR (v.2.3.0) ([65]). RT-qPCR analyses were performed as previously described ([66]) with some minor modifications. […] After infection, the infected cells were treated with 1.5 µM of the compounds. Forty-eight hours after treatment, the viral mRNA was isolated, converted to cDNA, and quantified through RT-qPCR on a 7500 Real-Time PCR System (Applied Biosystems) using the Power SYBR Green PCR Master Mix (Applied Biosystems). The comparative cycle threshold (Ct) method was used to analyze relative changes (Δ) in gene expression. The ΔCt values were determined using a 7500 Real-Time PCR System Software (Applied Biosystems) normalizing with gapdh, and the gene expression was calculated using the ΔΔCt-method. The primers used in this assay are the following: gag forward, 5′-[…]-3′, gag reverse, 5′-[…]-3′; gapdh forward, 5′-[…]-3′, gapdh reverse, 5′-[…]-3′.

[4] = test system: proviral DNA integrated to the host chromosome; test: Integrated proviral DNA, nested Alu-PCR in A3.01 cells; format: cell-based, HIV-1; details: compounds 5 µM, 40 h after infection
Description: Fig 5 (A) Time-of-addition assay. […] Subsequently, the cells were treated with the compounds at the indicated time points (0, 1, 2, 4, 6, 8, 10, 12, 24, 30, 36, 42, and 48 h) after HIV-1 infection. The final concentrations of compounds are described in Materials and Methods. Viral activity according to the timing of drug addition was measured as F-Luc activity at 54 h after infection. The relative activities are represented as the mean ± SD (n = 3) compared with the activity observed 54 h post-infection. The relative time frames associated with each HIV-1 infection step are defined based on the time frame of susceptibility to the drug that blocks that particular infection step. […] At 16 h after infection, the viral reverse transcription (RT) product (viral cDNA) level was determined by quantitative real-time PCR (RT-qPCR) using gag and 18S rRNA primer sets and represented as the mean ± SD (n = 3) normalized against the amount of the 18S rRNA compared with the DMSO control. **P < 0.01 compared with the vehicle (DMSO). (C) An in vitro integrase (IN) assay was performed with 10 µM of the indicated compounds following the manufacturer’s protocol. **P < 0.01 compared with vehicle (DMSO). (D) A3.01 cells were infected with HIV-1 upon treatment with the indicated compounds (5 µM) and ARVs (EFV and DTG) as the experimental controls. At 40 h after infection, cellular chromosomal DNA was purified, and the integrated proviral DNA was detected through nested Alu-PCR amplification.
The activity of HIV-1 RT was determined as previously described with some minor modifications ([66][–][68]). In brief, HIV-1NL4-3 obtained from plasmid transfection was treated with DNase I (2.5 U/mL) for 2 h at 37°C to remove the plasmid DNA. […] Sixteen hours after infection, the cell cytosolic DNA was isolated under RNase A treatment, and the RT products (cytosolic viral cDNA) were quantified using RT-qPCR and the following primers: gag forward, 5′-[…]-3′, gag reverse, 5′-[…]-3′; 18S rRNA forward, 5′-[…]-3′, 18S rRNA reverse, 5′-[…]-3′. The relative levels of RT products were analyzed using the ΔΔCt-method, as described above. In vitro integrase activity was determined using an HIV-1 integrase assay kit (XpressBio, Frederick, MD, USA) as previously described ([12]). In brief, a 96-well plate coated with donor substrate DNA was blocked, and HIV-1 integrase was then added to the plate. Subsequently, the compounds and target substrate DNA were added to the plate and incubated for 30 min at 37°C. The plate was washed and subsequently incubated with horse radish peroxidase. Integrase activity was measured by the peroxidase activity with the substrate at an optical density of 450 nm. The experiment was performed in triplicates. Detection of integrated proviral DNA was performed as previously described ([69]) with some minor modifications. […] Chromosomal DNA was purified using the G-Spin DNA extraction kit (Intron Bio Tech, Seongnam-si, Gyeonggi-do, Republic of Korea). The integrated proviral HIV-1 DNA was detected by nested Alu-PCR amplification using the following primers: first round PCR, Alu forward, 5′-[…]-3′, pol reverse, 5′-[…]-3′; second round PCR, gag forward, 5′-[…]-3′, pol reverse. gapdh was used as the control gene.

[5] = test system: HIV-1NL4-3 IRES-eGFP-nef+; test: eGFP-encoding HIV-1 infection of TZM-bl cells; format: cell-based; details: 9, 10, 13 1.5 μM, 20, 21, 22 4 μM, seliciclib 10 µM, triptolide 5 nM, DTG 2 nM, EFV 2 nM, 2 days
Description: Fig 4 (A) Comparison of the chemical structures between prominent derivatives (9, 10, and 13) and non-functional derivatives (20, 21 and 22). (B) bl-DTR cells were treated with serial dilutions of each compound upon Dox for 24 h. The activities of F-Luc and R-Luc were determined using the Dual-Glo -Luciferase assay system. (C) TZM-bl cells were infected with the HIV-1NL4-3 strain at an MOI of 1 upon treatment of compounds. At 48 h after infection, the viral infectivity and cell viability were determined as described above (Fig. 1). (D) TZM-bl cells were infected with HIV-1NL4-3 IRES-eGFP virus along with the compound treatment. Two days later, GFP-expressing cells were observed by fluorescence microscopy (100× magnification). […] At 48 h after infection, the β-gal activity indicating viral infectivity was determined using the β-gal Enzyme Assay kit. F-Luc activity and cell viability were determined as described above (Fig. 4C). (C and E) The dose-response curves show the relative activity compared with that of the DMSO vehicle (mean ± SD; n = 3).

HIV-1NL4-3 [6] = test: HIV-1 replication in A3.01 cells (p24 […]); format: cell-based; details: fivefold serial dilutions, 3 days
Description: as §3
as §2, with “modifications. Briefly, 5 × 10^4 persistently HIV-1-infected J1.1 or J-Lat 6.3 cells were cultured in either the presence or absence of the compounds at a final concentration of 1.5 µM and treated with PMA (50 ng/mL for J1.1 cells, 1 µg/mL for J-Lat 6.3 cells). Two days after treatment, the levels of viral production were determined using p24 […] for J1.1 cells and flow cytometry analysis for GFP-expressing J-Lat 6.3 cells.” for “modifications.”

Compound	EC50 [1]	EC50 [2]	EC50 (HIV-1NL4-3 [3])	read counts of transcripts mapped to the HIV-1 genome (HIV-1 transcripts)	nested Alu-PCR band for integrated proviral DNA [4]	inhibition of viral-expressed eGFP signal [5]	inhibition of viral replication (in words) (HIV-1NL4-3 [6])
CC(C)CN(C[C@@H](O)[C@H](Cc1ccccc1)NC(=O)O[C@H]1CO[C@H]2OCC[C@H]21)S(=O)(=O)c1ccc(N)cc1 [DRV, darunavir]	30 ± 10 nM	150 ± 20 nM	< 1 nM	–	–	–	–
Cc1[nH]c2ccc(-c3nnc(S(=O)(=O)C(C)C(=O)N4CCCC4)o3)cc2c1C (stereo not drawn) [Compound 21, 2-((5-(2,3-Dimethyl-1H-indol-5-yl)-1,3,4-oxadiazol-2-yl)sulfonyl)-1-(pyrrolidin-1-yl)propan-1-one]	–	–	–	not observed	observed	did not	–
Cc1[nH]c2ccc(-c3nnc(S(=O)(=O)C(C)C(=O)N4CCCCC4)o3)cc2c1C (stereo not drawn) [Compound 20, 2-((5-(2,3-Dimethyl-1H-indol-5-yl)-1,3,4-oxadiazol-2-yl)sulfonyl)-1-(piperidin-1-yl)propan-1-one]	–	–	–	not observed	–	did not	did not
